Activity calls are given as the source filed them. No rule for the calls is given here.
Test system: CCRIS mutagenicity, Ames/micronucleus/aberration tests
Assay: CCRIS mutagenicity studies
[1] = Test System: AMES SALMONELLA TYPHIMURIUM, Strain/Indicator: TA100, Metabolic Activation: NONE, Method: PREINCUBATION
[2] = Test System: AMES SALMONELLA TYPHIMURIUM, Strain/Indicator: TA98, Metabolic Activation: HAMSTER, LIVER, S-9, AROCLOR 1254 (10%), Method: PREINCUBATION
[3] = Test System: AMES SALMONELLA TYPHIMURIUM, Strain/Indicator: TA98, Metabolic Activation: NONE, Method: PREINCUBATION
[4] = Test System: AMES SALMONELLA TYPHIMURIUM, Strain/Indicator: TA98, Metabolic Activation: RAT, LIVER, S-9, AROCLOR 1254 (10%), Method: PREINCUBATION
[5] = Test System: AMES SALMONELLA TYPHIMURIUM, Strain/Indicator: TA100, Metabolic Activation: HAMSTER, LIVER, S-9, AROCLOR 1254 (10%), Method: PREINCUBATION
[6] = Test System: AMES SALMONELLA TYPHIMURIUM, Strain/Indicator: TA100, Metabolic Activation: RAT, LIVER, S-9, AROCLOR 1254 (10%), Method: PREINCUBATION
[7] = Test System: AMES SALMONELLA TYPHIMURIUM, Strain/Indicator: TA1535, Metabolic Activation: HAMSTER, LIVER, S-9, AROCLOR 1254 (10%), Method: PREINCUBATION
[8] = Test System: AMES SALMONELLA TYPHIMURIUM, Strain/Indicator: TA1535, Metabolic Activation: NONE, Method: PREINCUBATION
[9] = Test System: AMES SALMONELLA TYPHIMURIUM, Strain/Indicator: TA1535, Metabolic Activation: RAT, LIVER, S-9, AROCLOR 1254 (10%), Method: PREINCUBATION

COc1cc2c(c3oc4cccc(O)c4c(=O)c13)[C@@H]1C=CO[C@@H]1O2
mutagenic call (End Point: IN VITRO MICRONUCLEUS, Test System: AHH-1 CELLS, Metabolic Activation: NONE): active; positive | mutagenic call (End Point: IN VITRO MICRONUCLEUS, Test System: MCL-5 CELLS, Metabolic Activation: NONE): active; positive | mutagenic call (Test System: AMES SALMONELLA TYPHIMURIUM, Strain/Indicator: TA98, Metabolic Activation: R,L,S-9, PHENOBARBITAL, Method: STANDARD PLATE): inactive; negative | mutagenic call (Test System: AMES SALMONELLA TYPHIMURIUM, Strain/Indicator: TA98, Metabolic Activation: RAT, LIVER, MICROSOMES, PHENOBARBITAL, Method: STANDARD PLATE): active; positive | mutagenic call (Test System: AMES SALMONELLA TYPHIMURIUM, Strain/Indicator: TA98, Metabolic Activation: RAT, LIVER, S-9, AROCLOR 1254, Method: STANDARD PLATE): active; positive | mutagenic call (Test System: AMES SALMONELLA TYPHIMURIUM, Strain/Indicator: TA98, Metabolic Activation: RAT, LIVER, S-9, KC500 OR PHENOBARBITAL, Method: LIQUID SUSPENSION): active; positive | mutagenic call (Test System: AMES SALMONELLA TYPHIMURIUM, Strain/Indicator: TA98, Metabolic Activation: RAT, LIVER, S-9, PHENOBARBITAL, Method: STANDARD PLATE): inactive; negative | mutagenic call [1]: active; positive | mutagenic call (Test System: AMES SALMONELLA TYPHIMURIUM, Strain/Indicator: TA100, Metabolic Activation: R,L,S-9, PHENOBARBITAL, Method: STANDARD PLATE): active; positive | mutagenic call (Test System: AMES SALMONELLA TYPHIMURIUM, Strain/Indicator: TA100, Metabolic Activation: RAT, LIVER, MICROSOMES, PHENOBARBITAL, Method: STANDARD PLATE): active; positive | mutagenic call (Test System: AMES SALMONELLA TYPHIMURIUM, Strain/Indicator: TA100, Metabolic Activation: RAT, LIVER, S-9, AROCLOR 1254, Method: STANDARD PLATE): active; positive | mutagenic call (Test System: AMES SALMONELLA TYPHIMURIUM, Strain/Indicator: TA100, Metabolic Activation: RAT, LIVER, S-9, KC500 OR PHENOBARBITAL, Method: LIQUID SUSPENSION): active; positive | mutagenic call (Test System: AMES SALMONELLA TYPHIMURIUM, Strain/Indicator: TA100, Metabolic Activation: RAT, LIVER, S-9, PHENOBARBITAL, Method: PREINCUBATION): active; positive | mutagenic call (Test System: AMES SALMONELLA TYPHIMURIUM, Strain/Indicator: TA100, Metabolic Activation: RAT, LIVER, S-9, PHENOBARBITAL, Method: STANDARD PLATE): active; positive | mutagenic call (Test System: AMES SALMONELLA TYPHIMURIUM, Strain/Indicator: TA1538, Metabolic Activation: RAT, LIVER, S-9, AROCLOR 1254, Method: STANDARD PLATE): active; positive | mutagenic call (Test System: UDS HUMAN CELLS, Strain/Indicator: THY INCORP (NON-S-PHASE), Metabolic Activation: RAT, LIVER, S-9, PHENOBARBITAL, Method: LIQUID SCINTILLATION COUNTING): active; positive | mutagenic call (Test System: UDS HUMAN FIBROBLASTS, Strain/Indicator: THY INCORP (NON-S-PHASE), Metabolic Activation: MOUSE, LIVER, S-9, Method: AUTORADIOGRAPHY): active; positive

C=C1[C@@H](C)[C@H]2[C@H](Cc3ccccc3)NC(=O)[C@]23OC(=O)/C=C/[C@H](O)CCC[C@@H](C)C/C=C/[C@H]3[C@@H]1O
mutagenic call (End Point: In vivo micronucleus, Test System: Micronucleated, binucleated and multinucleated hepatocytes, Species: Mouse, Strain/Sex: ddY/Male, Route: Intravenous): active; positive for micronucleated cells when agent administered before and after parti

CCN(CC)CCCC(C)Nc1c2ccc(Cl)cc2nc2ccc(OC)cc12 (stereo unspecified)
mutagenic call (Test System: AMES SALMONELLA TYPHIMURIUM, Strain/Indicator: TA97, Metabolic Activation: HAMSTER, LIVER, S-9, AROCLOR 1254 (10%), Method: PREINCUBATION): active; positive | mutagenic call (Test System: AMES SALMONELLA TYPHIMURIUM, Strain/Indicator: TA97, Metabolic Activation: NONE, Method: PREINCUBATION): active; positive | mutagenic call (Test System: AMES SALMONELLA TYPHIMURIUM, Strain/Indicator: TA97, Metabolic Activation: RAT, LIVER, S-9, AROCLOR 1254 (10%), Method: PREINCUBATION): active; positive | mutagenic call [2]: active; positive | mutagenic call [3]: active; positive | mutagenic call (Test System: AMES SALMONELLA TYPHIMURIUM, Strain/Indicator: TA98, Metabolic Activation: NONE, Method: STANDARD PLATE): inactive; negative | mutagenic call (Test System: AMES SALMONELLA TYPHIMURIUM, Strain/Indicator: TA98, Metabolic Activation: RAT LIVER S-9, AROCLOR 1254 (10%), Method: STANDARD PLATE): active; positive | mutagenic call (Test System: AMES SALMONELLA TYPHIMURIUM, Strain/Indicator: TA98, Metabolic Activation: RAT LIVER S-9, Method: STANDARD PLATE): active; positive | mutagenic call [4]: active; positive | mutagenic call [5]: inactive; negative | mutagenic call [1]: inactive; negative | mutagenic call (Test System: AMES SALMONELLA TYPHIMURIUM, Strain/Indicator: TA100, Metabolic Activation: NONE, Method: STANDARD PLATE): inactive; negative | mutagenic call (Test System: AMES SALMONELLA TYPHIMURIUM, Strain/Indicator: TA100, Metabolic Activation: RAT LIVER S-9, AROCLOR 1254 (10%), Method: STANDARD PLATE): inactive; negative | mutagenic call (Test System: AMES SALMONELLA TYPHIMURIUM, Strain/Indicator: TA100, Metabolic Activation: RAT LIVER S-9, Method: STANDARD PLATE): inactive; negative | mutagenic call [6]: inactive; negative | mutagenic call [7]: inactive; negative | mutagenic call [8]: inactive; negative | mutagenic call (Test System: AMES SALMONELLA TYPHIMURIUM, Strain/Indicator: TA1535, Metabolic Activation: NONE, Method: STANDARD PLATE): inactive; negative | mutagenic call (Test System: AMES SALMONELLA TYPHIMURIUM, Strain/Indicator: TA1535, Metabolic Activation: RAT LIVER S-9, AROCLOR 1254 (10%), Method: STANDARD PLATE): inactive; negative | mutagenic call [9]: inactive; negative | mutagenic call (Test System: AMES SALMONELLA TYPHIMURIUM, Strain/Indicator: TA1537, Metabolic Activation: NONE, Method: STANDARD PLATE): active; positive | mutagenic call (Test System: AMES SALMONELLA TYPHIMURIUM, Strain/Indicator: TA1537, Metabolic Activation: RAT LIVER S-9, AROCLOR 1254 (10%), Method: STANDARD PLATE): active; positive | mutagenic call (Test System: E. COLI, Strain/Indicator: WP2 UVRA, Metabolic Activation: NONE, Method: STANDARD PLATE): active; positive | mutagenic call (Test System: E. COLI, Strain/Indicator: WP2 UVRA, Metabolic Activation: RAT LIVER S-9, AROCLOR 1254 (10%), Method: STANDARD PLATE): inactive; negative | mutagenic call (Test System: MOUSE LYMPHOMA, Strain/Indicator: L5178Y(TK+/TK-), Metabolic Activation: NONE, Method: SUSPENSION/PLATE): active; positive | mutagenic call (Test System: MOUSE LYMPHOMA, Strain/Indicator: L5178Y(TK+/TK-), Metabolic Activation: RAT LIVER S-9, AROCLOR 1254 (25%), Method: SUSPENSION/PLATE): inactive; negative

CN(C)CCN(Cc1ccc(Cl)s1)c1ccccn1
mutagenic call [2]: inactive; negative | mutagenic call [3]: inactive; negative | mutagenic call [4]: inactive; negative | mutagenic call [5]: inactive; negative | mutagenic call [1]: inactive; negative | mutagenic call [6]: inactive; negative | mutagenic call [7]: inactive; negative | mutagenic call [8]: inactive; negative | mutagenic call [9]: inactive; negative | mutagenic call (Test System: AMES SALMONELLA TYPHIMURIUM, Strain/Indicator: TA1537, Metabolic Activation: HAMSTER, LIVER, S-9, AROCLOR 1254 (10%), Method: PREINCUBATION): inactive; negative | mutagenic call (Test System: AMES SALMONELLA TYPHIMURIUM, Strain/Indicator: TA1537, Metabolic Activation: NONE, Method: PREINCUBATION): inactive; negative | mutagenic call (Test System: AMES SALMONELLA TYPHIMURIUM, Strain/Indicator: TA1537, Metabolic Activation: RAT, LIVER, S-9, AROCLOR 1254 (10%), Method: PREINCUBATION): inactive; negative

Source: PubChem BioAssay AID1259407 (Chemical Carcinogenesis Research Information System (CCRIS), 2018)
